molecular target: T1, human BLT1 (Homo sapiens, UniProt Q15722); assay: LTB4-induced intracellular calcium increase (Fluo-3) in CHO cells expressing human BLT1; format: cell-based; details: CHO cells harbouring BLT1; compound 10 μM; 100 nM LTB4; fluorescence AUC in 10 min
T1 construct: expressed in transfected cells; host or cells: CHO cells
Procedure: (§1) CHO cells harbouring a gene encoding human BLT1 or human BLT2 and functionally expressing the receptor were seeded in a 96 well plate at 4×10^4 cells/well, and cultured at 37° C. for 60 min. The culture supernatant was removed and a loading buffer (100 μl) containing 4 μM Fluo-3 (manufactured by Dojindo), 0.04% pluoronic acid (manufactured by Sigma) and 1% serum was added. The cells were cultured at 37° C. for 30 min to introduce Fluo-3 into the cells. After culture, the cells were washed with a buffer, and a buffer containing the compound of Example 1 (10 μM (final concentration)) was added, and then 100 nM (final concentration) of leukotriene B4 (LTB4) was added. Changes in the intracellular calcium ion concentration were measured with Flexstation (manufactured by Molecular Devices Corporation) as an increase in the fluorescence intensity (area under a curve in a time-course graph of fluorescence intensity in 10 min measurement). As a positive control of BLT1 and BLT2 antagonists, ZK158252, a known LTB4 inhibitor, was used.

T1 sequence (Q15722 whole entry): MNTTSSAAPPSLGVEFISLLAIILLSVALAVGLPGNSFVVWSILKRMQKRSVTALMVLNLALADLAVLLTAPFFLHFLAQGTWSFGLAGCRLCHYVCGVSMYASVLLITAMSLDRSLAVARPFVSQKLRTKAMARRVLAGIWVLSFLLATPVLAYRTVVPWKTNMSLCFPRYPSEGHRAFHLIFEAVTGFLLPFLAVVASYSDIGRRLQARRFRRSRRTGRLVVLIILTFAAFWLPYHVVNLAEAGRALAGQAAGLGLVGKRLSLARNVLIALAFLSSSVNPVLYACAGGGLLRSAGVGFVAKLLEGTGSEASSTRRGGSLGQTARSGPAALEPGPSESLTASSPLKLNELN

Row | SMILES | suppression of increase in the intracellular calcium ion concentration due to LTB4 stimulation
1 | CCN(CC)C(=O)/C=C(\C)c1cc2cccc(OC(C)c3ccccc3)c2o1 (stereo not shown) [Example 1, (E)-3-[7-(1-phenylethoxy)-benzofuran-2-yl]-but-2-enoic acid-diethylamide] | weaker as compared to the effect on BLT2
2 | O=C(O)CCC/C=C1\CCCCC1/C=C/C=C/C(O)C1(CC#Cc2ccccc2)CCC1 (stereo not shown) [ZK158252, reference compound] | significantly suppressed

system: not given; assay: not given; details: not given

Row | melting point | SMILES
3 | 112.2 to 117 °C | COc1ccc(C(=CC(=O)NCCc2ccc(OC)c(OC)c2)c2cc3cc(Br)ccc3o2)cc1 [Example 17]
4 | 150 to 153.5 °C | O=C(/C=C(/c1ccc(Cl)cc1)c1cc2cc(Br)ccc2o1)N1CCOCC1 [Example 10]
5 | 150.1 to 153.5 °C | COc1ccc(CCNC(=O)/C=C(/C)c2c(C)oc3ccc(Br)cc23)cc1OC [Example 15]
6 | 130 to 134 °C | CCN(CC)C(=O)/C=C(\C)c1c(C)oc2ccc([N+](=O)[O-])cc12 [Example 20]
7 | 132.1 to 134.6 °C | O=C(/C=C/c1coc2ccccc12)N1CCOCC1 [Example 14]
8 | 169.1 to 171.9 °C | COc1ccc(CCNC(=O)/C=C(\C)c2c(-c3ccccc3)oc3ccc(Cl)cc23)cc1OC [Example 11]
9 | 93.5 to 96 °C | CCN(CC)C(=O)/C=C(/c1ccc(OC)cc1)c1cc2cc(Br)ccc2o1 [Example 13]
10 | 116.9 to 124.4 °C | COc1ccc(CCNC(=O)C=C(C)c2c(C)oc3ccc([N+](=O)[O-])cc23)cc1OC [Example 21]
11 | 160.1 to 162.2 °C | COc1cccc(NC(=O)/C=C(/c2ccc(Cl)cc2)c2cc3cc(Br)ccc3o2)c1 [Example 16]

Continued, compound first:

Row | SMILES | melting point
12 | CCN(CC)C(=O)/C=C(/c1ccc(Cl)cc1)c1cc2cc(Br)ccc2o1 [Example 6] | 106.7 to 109.8 °C
13 | COc1ccc(CCNC(=O)/C=C(/C)c2c(C)oc3ccc(Cl)cc23)cc1OC [Example 2] | 150.9 to 151.5 °C
14 | COc1ccc(CCNC(=O)/C=C/c2coc3ccccc23)cc1OC [Example 9] | 138.1 to 140.3 °C
15 | COc1cccc(NC(=O)/C=C(\C)c2c(C)oc3ccc(Cl)cc23)c1 [Example 4] | 139 to 142 °C
16 | COc1ccc(CCNC(=O)/C=C(\C)c2c(C)oc3ccc(Br)cc23)cc1OC [Example 5] | 143.1 to 150 °C
17 | COc1ccc(CCNC(=O)/C=C(\C)c2c(C)oc3ccc(Cl)cc23)cc1OC [Example 3] | 73 to 76 °C

molecular target: T2, human BLT2 (Homo sapiens, UniProt Q9NPC1); assay: LTB4-induced intracellular calcium increase (Fluo-3) in CHO cells expressing human BLT2; format: cell-based; details: CHO cells harbouring BLT2; compound 10 μM; 100 nM LTB4; fluorescence AUC in 10 min
T2 construct: expressed in transfected cells; host or cells: CHO cells
T2 sequence (Q9NPC1 1-358): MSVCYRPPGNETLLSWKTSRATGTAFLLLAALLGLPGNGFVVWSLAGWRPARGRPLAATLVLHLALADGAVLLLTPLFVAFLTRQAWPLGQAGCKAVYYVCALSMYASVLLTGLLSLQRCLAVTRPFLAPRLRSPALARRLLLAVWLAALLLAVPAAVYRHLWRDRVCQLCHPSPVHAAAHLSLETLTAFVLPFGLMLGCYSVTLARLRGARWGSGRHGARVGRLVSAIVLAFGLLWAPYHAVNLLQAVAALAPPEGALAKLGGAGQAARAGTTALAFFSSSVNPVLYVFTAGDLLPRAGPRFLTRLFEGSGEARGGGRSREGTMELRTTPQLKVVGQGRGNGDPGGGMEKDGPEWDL
Procedure: as §1

Row | SMILES | suppression of increase in the intracellular calcium ion concentration due to LTB4 stimulation
18 | CCN(CC)C(=O)/C=C(\C)c1cc2cccc(OC(C)c3ccccc3)c2o1 (stereo not shown) [Example 1, (E)-3-[7-(1-phenylethoxy)-benzofuran-2-yl]-but-2-enoic acid-diethylamide] | suppressed by the compound of Example 1 at an intensity equivalent to or greater than the suppression by ZK158252
19 | O=C(O)CCC/C=C1\CCCCC1/C=C/C=C/C(O)C1(CC#Cc2ccccc2)CCC1 (stereo not shown) [ZK158252, reference compound] | significantly suppressed

From patent US8084492B2, “Benzofuran compound and pharmaceutical composition containing the same” (The New Industry Research Organization, priority 2004, dated 2011)
